As usually defined, the IC50 is the point on the concentration scale where inhibition reaches its midpoint.

These results are taken from PMC10177692, “Novel topoisomerase II/EGFR dual inhibitors: design, synthesis and docking studies of naphtho[2′,3′:4,5]thiazolo[3,2-a]pyrimidine hybrids as potential anticancer agents with apoptosis inducing activity” (Journal of Enzyme Inhibition and Medicinal Chemistry, 2023).

Where two headings read alike, the source gives them in different places.

Common to all, as to experiment: MTT anti-proliferative assay
Type in all cases: cell-based, human
(Formazan colour is commonly taken as a measure of viable cells.)

For assay [1], the system named is MCF-7. The following applies: for IC50: Homo sapiens, MCF7. The procedure:
(§1) The culture media were supplemented with 10% heat inactivated foetal bovine serum (FBS, HyClone, Thermo Scientific) and antibiotics (100 U/ml penicillin and 100 µg/ml streptomycin, HyClone, Thermo Scientific). The cells were incubated in a humidified atmosphere containing 5% CO2 (Heracell VIOS CO2 incubator, Thermo Scientific) in air at 37 °C.
(§2) MTT reagent, at volume equal to 10% of the culture medium volume, was added to the cultured cells and to the blank wells. The culture plates were re-incubated for 2–4 h depending on cell type and density. After the incubation period, culture plates were restored from the incubator and the obtained formazan crystals were dissolved in acidified isopropanol with continuous shaking using plate shaker (MaxQ 2000, Thermo Fisher Scientific Inc., MI, USA) at room temperature. Absorbance was measured spectrophotometrically at wavelength 570 nm using a plate reader (Stat FaxR 4200, Awareness Technology, Inc., FL, USA). […] Three independent experiments were performed for each compound and Mean ± SE were calculated.

The subject of assay [2] is A549. The following applies: for IC50: Homo sapiens, A549, MTT, 24 h, mean ± SE of three experiments, read-out: IC50 (µM) ± S.E. A549. As to the method: as §1, §2
The test system of assay [3] is HCT-116. The following applies: for IC50: Homo sapiens, HCT-116, MTT, 24 h, mean ± SE of three experiments, read-out: IC50 (µM) ± S.E. HCT-116. As to the method: as §1, §2
[4] abbreviates: MCF-7, concentration used for treatment, read-out: IC50 µM (Table 4).
Where [5] appears, read: MCF-7, concentration used for treatment, read-out: IC50 (Table 2).
[6] abbreviates: MCF-7, concentration used for treatment, read-out: IC50 (Table 3).
Setting [7] is: MTT, 24 h, mean ± SE of three experiments, read-out: IC50 (µM) ± S.E. MCF-7.

`COc1ccc(-c2nc3sc4c(n3c(=O)c2C#N)C(=O)c2ccccc2C4=O)cc1` [Compound 6a, 2–(4-Methoxyphenyl)-4,6,11-trioxo-6,11-dihydro-4H-naphtho[2′,3′:4,5]-thiazolo[3,2-a]pyrimidine-3-carbonitrile]: the IC50 was 3.34 µM in assay [1] (setting [4]); 3.34 µM in assay [1] (setting [5]); 3.34 µM in assay [1] (setting [6]); 3.34 ± 0.21 µM in assay [1] (setting [7]); 2.81 ± 0.18 µM in assay [2]; 3.58 ± 0.24 µM in assay [3].
For the compound `N#Cc1c(-c2ccc([N+](=O)[O-])cc2)nc2sc3c(n2c1=O)C(=O)c1ccccc1C3=O` [Compound 6i, 2–(4-Nitrophenyl)-4,6,11-trioxo-6,11-dihydro-4H-naphtho[’',’':4,5]thiazolo-[3,2-a]pyrimidine-3-carbonitrile], the IC50 in assay [1] (setting [4]) was 1.79 µM; in assay [1] (setting [5]) it was 1.79 µM; in assay [1] (setting [6]), 1.79 µM; in assay [1] (setting [7]), 1.79 ± 0.11 µM; in assay [2], 1.55 ± 0.13 µM; in assay [3], 2.29 ± 0.18 µM. The “fold superior activity than Dox” value in assay [1] (MCF-7, ratio of IC50 values) is 3.13 fold; in assay [2] (A549, ratio of IC50 values), 3.19 fold; in assay [3] (HCT-116, ratio of IC50 values) it was 2.96 fold. Further, the “fold the activity of erlotinib” value is 4.05 fold in assay [1] (MCF-7, ratio of IC50 values); 3.35 fold in assay [2] (A549, ratio of IC50 values); 3.77 fold in assay [3] (HCT-116, ratio of IC50 values).
